# Measured values published in patent US6955648B2, “Precision brain blood flow assessment remotely in real time using nanotechnology ultrasound” (New Health Sciences, Inc., priority 2000, dated 2005).
# Test system: cerebral vessels
# Settings: person after first stroke
# Experimental: A person with a history of hypertension experiences a first stroke in the left middle cerebral artery resulting in deficits in the right hand, leg, and some deficits in motor speech. These are the symptoms upon presentation in the neurological clinic. Transcranial Doppler analysis of all cerebral vessels is performed in addition to analyzing the common carotid artery and the internal carotid artery.
# The physician considers prescription of Plavix together with a calcium channel blocker. Transcranial Doppler analysis was performed at monthly intervals. […] The physician subsequently administers a higher dose. Again, transcranial Doppler analysis is performed on all cerebral vessels.
# [1] = higher dose, transcranial Doppler on all cerebral vessels
compound,measurement,setting,value
COC(=O)[C@H](c1ccccc1Cl)N1CCc2sccc2C1 [Plavix],effect on the cerebral vessels (changes in the individual cerebral vessels),"Plavix +/− calcium channel blocker, initial dose, transcranial Doppler at monthly intervals",no effect
same,auto-regulation curve,[1],left-shifts toward normal
same,pulsatility index,[1],decreases
